Test results: US20100160425A1, “ANTI-ALLERGIC AGENT AND BEVERAGE/FOOD, PREPARATION FOR EXTERNAL APPLICATION OR COSMETIC COMPRISING THE AGENT” (priority 2006, published 2010)

Test system: mouse bone marrow-derived cultured mast cells (BMMC)
Assay: Inhibition of histamine release from IgE-sensitized, DNP-HSA-stimulated mouse mast cells
Assay type: cell-based
Conditions: for Ratio of Histamine Release Inhibiting Effect %: sample at 10 μg/ml, relative to distilled water control
Description: In order to determine the anti-allergic activity (type I allergy), inhibitory activity on the release of histamine from mouse mast cells was used as an indicator. The histamine release inhibitory effect was investigated by using mouse bone marrow-derived cultured mast cells (BMMC). The cells were cultured in a RPMI1640 medium supplemented with 10% heat inactivated FBS (fetal bovine serum), 3 ng/ml of interleukin-3 (IL-3), 5 mM […], and 50 μM 2-mercaptoethanol. The cells (1×10^7 cells/ml) were sensitized anti-DNP mouse IgE antibody overnight, then, on the following day, suspended in a Tyrode solution and incubated with the test samples for 10 minutes, degranulation was induced by adding DNP-HSA (antigen) (20 minutes), and the amount of histamine in the supernatant fluid was determined using liquid chromatography. An LC-10A (manufactured by Shimadzu Corporation) was used as the measuring instrument, and […] was used as the column. Isocratic analysis was conducted under the following conditions: flow rate of 0.5 ml/min; injection amount of 20 μl; temperature of the column oven of 37° C.; detector RF ([…], em. 430 nm). The anti-allergic activity was determined to be high when the relative value to distilled water, which was a control, was lower.

| Compound | anti-allergic activity (among the compounds of general formula (1), summary statement) | histamine release inhibiting effect relative to that of EGCG3″Me (beverages containing 2 μg/ml and 10 μg/ml, FIG. 2) | histamine release inhibiting effect when added to Yabukita hot-water extract (final additive concentration 0.1 to 50 μg/ml in Yabukita hot-water extract, FIG. 4) | Ratio of Histamine Release Inhibiting Effect % |
| --- | --- | --- | --- | --- |
| COc1cc(C(=O)O[C@@H]2Cc3c(O)cc(O)cc3O[C@@H]2c2ccc(O)c(O)c2)cc(O)c1O [ECG3″Me, epictechin-3-O-(3-O-methyl)gallate] | especially strong anti-allergic activity | approximately 1.5 times | can increase the anti-allergic activity more than EGCG3″Me | 46.79% |
| epigallocatechin-3-O-(3-O-methyl)gallate [EGCG3″Me, reference compound] |  |  |  | 29.6% |
| epigallocatechin-3-O-gallate [EGCG, reference compound] |  |  |  | 7.63% |
